A short description of test [1]: Selectivity index, ratio of Ki for inhibition of Bacteroides fragilis GUS pre-incubated for 5 to 30 mins before 4-methylumbelliferone beta-D-glucuronide substrate addition at pH 5.5 to Ki for inhibition of Clostridium perfringens GUS pre-incubated for 5 to 30 mins before 4-methylumbelliferone beta-D-glucuronide substrate addition at pH 5.5.
The nature of test [2]: Inhibition of Bacteroides fragilis GUS pre-incubated for 5 to 30 mins before 4-methylumbelliferone beta-D-glucuronide substrate addition at pH 6.7.
Test [3] can be described thus: Inhibition of Ruminococcus gnavus GUS pre-incubated for 5 to 30 mins before 4-methylumbelliferone beta-D-glucuronide substrate addition at pH 6.7. Set-up: species or system Mediterraneibacter gnavus.
Test [4] in a line: Inhibition of Clostridium perfringens GUS pre-incubated for 5 to 30 mins before 4-methylumbelliferone beta-D-glucuronide substrate addition at pH 5.5.
Test [5] is described as follows: Inhibition of Bacteroides fragilis GUS pre-incubated for 5 to 30 mins before 4-methylumbelliferone beta-D-glucuronide substrate addition at pH 5.5.
The target in test [6] is T1, Beta-glucuronidase (Escherichia coli (strain K12), UniProt P05804). The experiment in a line: Inhibition of Escherichia coli GUS pre-incubated for 5 to 30 mins before 4-methylumbelliferone beta-D-glucuronide substrate addition at pH 5.5.
T1 sequence (P05804 whole entry): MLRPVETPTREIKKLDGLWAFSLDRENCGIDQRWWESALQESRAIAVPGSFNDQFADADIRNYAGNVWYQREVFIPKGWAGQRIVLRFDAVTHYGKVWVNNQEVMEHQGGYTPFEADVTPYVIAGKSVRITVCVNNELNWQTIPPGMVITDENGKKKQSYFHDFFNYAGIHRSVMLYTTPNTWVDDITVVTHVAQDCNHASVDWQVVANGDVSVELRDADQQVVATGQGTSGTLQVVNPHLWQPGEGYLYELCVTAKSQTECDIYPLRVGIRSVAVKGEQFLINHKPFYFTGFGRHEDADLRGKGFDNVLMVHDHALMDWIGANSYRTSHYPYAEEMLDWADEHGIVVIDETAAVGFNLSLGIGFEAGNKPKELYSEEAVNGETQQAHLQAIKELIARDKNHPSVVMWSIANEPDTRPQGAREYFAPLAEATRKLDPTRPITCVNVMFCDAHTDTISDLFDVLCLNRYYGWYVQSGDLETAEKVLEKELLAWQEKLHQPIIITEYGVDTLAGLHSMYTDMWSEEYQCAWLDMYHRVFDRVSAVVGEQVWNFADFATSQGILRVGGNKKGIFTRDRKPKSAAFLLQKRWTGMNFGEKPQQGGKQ
Test [7] deals with T1, Beta-glucuronidase. Nature of the test: Inhibition of Escherichia coli GUS pre-incubated for 5 to 30 mins before 4-methylumbelliferone beta-D-glucuronide substrate addition at pH 6.7.
Test [8] in a line: Selectivity index, ratio of Ki for inhibition of Ruminococcus gnavus GUS pre-incubated for 5 to 30 mins before 4-methylumbelliferone beta-D-glucuronide substrate addition at pH 5.5 to Ki for inhibition of Escherichia coli GUS pre-incubated for 5 to 30 mins before 4-methylumbelliferone beta-D-glucuronide substrate addition at pH 5.5.
A short description of test [9]: Inhibition of Clostridium perfringens GUS pre-incubated for 5 to 30 mins before 4-methylumbelliferone beta-D-glucuronide substrate addition at pH 6.7.
Test [10] in a line: Inhibition of Ruminococcus gnavus GUS pre-incubated for 5 to 30 mins before 4-methylumbelliferone beta-D-glucuronide substrate addition at pH […]. Set-up: species or system Mediterraneibacter gnavus.
For test [11], the target named is T2, Beta-glucuronidase (Bos taurus, UniProt A3KMY8).
T2 sequence (A3KMY8 whole entry): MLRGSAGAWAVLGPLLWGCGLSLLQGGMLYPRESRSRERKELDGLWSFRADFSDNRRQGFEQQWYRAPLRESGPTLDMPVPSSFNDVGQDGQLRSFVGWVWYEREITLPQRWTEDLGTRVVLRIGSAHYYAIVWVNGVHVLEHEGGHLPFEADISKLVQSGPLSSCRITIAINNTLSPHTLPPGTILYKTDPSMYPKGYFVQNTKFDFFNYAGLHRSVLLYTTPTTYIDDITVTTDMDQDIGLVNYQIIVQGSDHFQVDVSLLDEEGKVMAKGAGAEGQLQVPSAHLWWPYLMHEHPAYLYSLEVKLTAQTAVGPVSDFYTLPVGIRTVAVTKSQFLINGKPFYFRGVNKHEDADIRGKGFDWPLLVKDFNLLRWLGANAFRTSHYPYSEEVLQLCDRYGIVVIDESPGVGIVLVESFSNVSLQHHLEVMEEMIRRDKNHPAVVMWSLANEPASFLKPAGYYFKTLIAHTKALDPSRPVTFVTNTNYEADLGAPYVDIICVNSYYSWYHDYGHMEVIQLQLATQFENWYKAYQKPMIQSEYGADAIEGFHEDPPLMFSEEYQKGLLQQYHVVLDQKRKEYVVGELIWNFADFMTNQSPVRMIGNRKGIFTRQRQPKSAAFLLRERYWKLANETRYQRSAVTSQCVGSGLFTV
Nature of the test: Inhibition of bovine GUS pre-incubated for 5 to 30 mins before 4-methylumbelliferone beta-D-glucuronide substrate addition at pH 6.7.

The target in test [12] is T2, Beta-glucuronidase. Nature of the test: Inhibition of bovine GUS pre-incubated for 5 to 30 mins before 4-methylumbelliferone beta-D-glucuronide substrate addition at pH 4.5.
In test [13] the test system is Mediterraneibacter gnavus. The experiment in a line: Inhibition of Ruminococcus gnavus GUS pre-incubated for 5 to 30 mins before 4-methylumbelliferone beta-D-glucuronide substrate addition up to pH 6.9.
The test system of test [14] is Bacteroides fragilis. The experiment in a line: Inhibition of Bacteroides fragilis GUS pre-incubated for 5 to 30 mins before 4-methylumbelliferone beta-D-glucuronide substrate addition at pH 3.6 to 6.9.
Test [15] deals with Beta-glucuronidase (Escherichia coli (strain K12)) (UniProt P05804). The experiment in a line: Inhibition of Escherichia coli GUS pre-incubated for 5 to 30 mins before 4-methylumbelliferone beta-D-glucuronide substrate addition at pH 6.5 to 7.9.
Chain of Beta-glucuronidase (Escherichia coli (strain K12)) (P05804 whole entry, looked up): as the sequence (P05804 whole entry) above
Test [16] shares this target. The experiment in a line: Inhibition of Escherichia coli GUS pre-incubated for 5 to 30 mins before 4-methylumbelliferone beta-D-glucuronide substrate addition at pH 3.6 to 6.9.
For test [17], the system named is Bacteroides fragilis. The experiment in a line: Inhibition of Bacteroides fragilis GUS pre-incubated for 5 to 30 mins before 4-methylumbelliferone beta-D-glucuronide substrate addition at pH 6.5 to 7.9.

SMILES strings stand for the structures. Calls of active or inactive are those of the source. The calls are words filed in the database; no cut-off is given here.

`CCCN1C[C@@H](O)[C@H](O)[C@@H](C(=O)O)C1`: the values for the Ratio Ki in [1] and in test [8] were 190 and 700, respectively. For the same molecule, the Ki amounted to 15.5 µM in test [2]; 5.45 µM in [3]; 37.3 µM in test [4]; 38.7 µM in test [5]; 59.2 µM on Beta-glucuronidase [6]; 41.3 µM on Beta-glucuronidase [7]. Further, the Ki in [9] amounted to 51.8 µM; in test [10], 17.6 µM; at Beta-glucuronidase [11], 61.2 µM; at Beta-glucuronidase [12] it was 187 µM.

Regarding `CCC[C@@H]1NC[C@@H](O)[C@H](O)[C@H]1C(=O)O`, the Ki in [2] turned out to be 3.66 µM; in test [3], 51.8 µM; in test [4], 0.425 µM; in [5] it was 7.45 µM; at Beta-glucuronidase [6] it was 0.182 µM; at Beta-glucuronidase [7], 0.0737 µM. The Ki is 0.179 µM in test [9], 94.6 µM in [10], 5.87 µM at Beta-glucuronidase [11] and 32.2 µM on Beta-glucuronidase [12].

For `O=C(O)[C@H]1NC[C@H](O)[C@@H](O)[C@@H]1O`, the Ki turned out to be 12.3 µM in test [4]; 2.41 µM in [5]; 17.5 µM at Beta-glucuronidase [6]; 21 µM in [10]; 21.5 µM at Beta-glucuronidase [12].

Regarding `O=C(O)[C@H]1OC(=O)[C@H](O)[C@@H](O)[C@@H]1O`, the inhibition constant (Ki) is 4.51 µM in test [4]; 0.69 µM in test [5]; 15.8 µM on Beta-glucuronidase [6]; 40.8 µM in test [10]; 4.87 µM at Beta-glucuronidase [12].

On to `O=C(O)[C@H]1NC(=O)[C@H](O)[C@@H](O)[C@@H]1O`, for which the Ki in test [4] is 0.101 µM; in [5], 0.069 µM; on Beta-glucuronidase [6] it was 0.232 µM; in test [10], 0.28 µM; on Beta-glucuronidase [12], 0.132 µM.

For the molecule `O=C(O)[C@H]1CNC[C@@H](O)[C@@H]1O`, the Ki is 0.0036 µM in [2]; 0.0039 µM in [3]; 0.011 µM in test [4]; 0.034 µM at Beta-glucuronidase [6]; 0.012 µM on Beta-glucuronidase [7]; 0.0161 µM in test [9]. Besides, the figures for the inhibition constant Ki (in test [10]; at Beta-glucuronidase [11]; at Beta-glucuronidase [12]) were 0.05 µM, 0.0122 µM and 0.048 µM, respectively. Besides, the inhibition result (in [13]; in the test with Bacteroides fragilis [14]; in test [15]; in test [16]; in the test on Bacteroides fragilis [17]) was “Active” throughout.
